A word on the ED50: it is the midpoint of the dose-response relation. The term inhibition denotes the change of the read-out against control, counted positive when it falls. Lower therefore signals a response near the control.

This note sets out measurements from patent US10745397B2, “1-Substituted 1,2,3,4-tetrahydro-1,7-naphthyridin-8-amine derivatives and their use as EP4 receptor antagonists” (TAKEDA PHARMACEUTICAL COMPANY LIMITED, priority 2015, dated 2020).

Test [1] relates to Adjuvant Induced Arthritis (AIA) Model in Female Lewis Rats. Put plainly: Suppression of arthritis development in adjuvant induced arthritis (AIA) model, arthritis score. Particulars: PO; for % reduction in arthritis score: day 14 to day 23, compared to vehicle treatment at end of study period; for ED50: Rattus norvegicus, BID, female Lewis rats. Format: in vivo, rat. Here is the method:
Adjuvant arthritis was induced on day 1 in female Lewis rats (10-12 weeks) by intradermal injection of heat killed Mycobacterium tuberculosis in complete freund's adjuvant (CFA) intradermally (Mycobacterium tuberculosis 100 mg in 5 mL incomplete freunds adjuvant, 200 μL per rat). Animals were randomized into different treatment groups, each group consist of 8 animals based on clinical scores on day 14. The animals in control group were given CFA and in second control group were administered with CFA and vehicle (1% Tween-80+0.5% CMC, quantity sufficient, 3 ml/kg, PO), where as animals in experimental groups were treated with CFA and EP4 antagonist (Example B2 and Example B4) in therapeutic fashion orally twice a day (BID) from day 14 to day 23 at 0.1, 0.3, 1, 3, 10 and 30 mg/kg doses.
Animals were evaluated for clinical symptoms and scored accordingly for inflamed paws and erythema. The scorer was blind to the treatment groups. Key findings for example B2 (Refer FIG. 1) and B4 (Refer FIG. 2) in rat arthritis model are as follows.

The target in test [2] is T1, hEP4 (C6 glioma cells overexpressing hEP4) (Homo sapiens, UniProt P35408).
T1 construct: host or cells: C6 glioma cells overexpressing hEP4
Put plainly: hEP4 cell based assay (cAMP), inhibition of PGE2 induced cAMP, HTRF. Particulars: 1 μM compound, PGE2 at EC80. An outline of the steps:
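C6 glioma cells overexpressing hEP4 were pre-incubated 15 min with compound plus IBMX and Ro 20-1724 (each […]), then stimulated 30 min with PGE2 at EC80; 1% DMSO. cAMP was read by competitive HTRF (665/620 nm); IC50 came from non-linear regression, with agonist-only as 0% and no-agonist as 100% inhibition.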

Another test deals with T2, human EP4 receptor (Homo sapiens, UniProt P35408).
T2 construct: expressed in transfected cells; host or cells: FreeStyle293 (HEK293F) cells, transient transfection with pcDNA3.1(+), total membrane fraction
Put plainly: hEP4 radioligand binding assay ([3H] PGE2 competitive binding, membrane fractions). Particulars: 300 nM compound; 1 nM [3H] PGE2. An outline of the steps:
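Membranes from FreeStyle293 (HEK293F) cells transiently expressing full-length human EP4; 10 μg protein incubated with compound and 1 nM [3H]PGE2 in 50 mM Tris-HCl pH 6.0, 10 mM MgCl2, 0.5 mM EDTA, 1% DMSO, 2 h at room temperature. Nonspecific binding with 10 μM unlabeled PGE2; filtration and scintillation counting; Ki by one-site fit.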

Each structure is given as a SMILES string.

T1 sequence (P35408 whole entry): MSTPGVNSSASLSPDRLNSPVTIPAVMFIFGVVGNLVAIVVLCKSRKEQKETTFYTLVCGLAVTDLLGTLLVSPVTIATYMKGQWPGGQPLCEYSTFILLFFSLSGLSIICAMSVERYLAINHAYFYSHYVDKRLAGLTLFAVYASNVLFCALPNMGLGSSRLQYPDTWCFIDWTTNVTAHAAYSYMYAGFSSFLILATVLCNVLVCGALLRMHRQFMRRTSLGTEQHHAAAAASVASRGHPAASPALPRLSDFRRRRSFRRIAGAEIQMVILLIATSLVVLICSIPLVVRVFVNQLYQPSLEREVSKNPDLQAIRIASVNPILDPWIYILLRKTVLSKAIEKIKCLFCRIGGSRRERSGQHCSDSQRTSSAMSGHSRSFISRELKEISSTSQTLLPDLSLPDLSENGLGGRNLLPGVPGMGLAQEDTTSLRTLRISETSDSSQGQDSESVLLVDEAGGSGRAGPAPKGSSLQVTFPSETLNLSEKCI
T2 sequence (P35408 whole entry): as above

As to `C[C@H](Nc1nccc2c1N(Cc1cccc(Cl)c1)CCO2)c1ccc(C(=O)O)cc1` [Example B2, 4-[(1S)-1-[[4-[(3-Chlorophenyl)methyl]-2,3-dihydropyrido[4,3-b][1,4]oxazin-5-yl]amino]ethyl]benzoic acid], the “% reduction in arthritis score” value in test [1] (0.1 mg/kg BID) came to 23%; in test [1] (0.3 mg/kg BID), 45%; in test [1] (1 mg/kg BID), 46%; in test [1] (3 mg/kg BID), 67%; in test [1] (10 mg/kg BID), 68%; in test [1] (30 mg/kg BID), 71%. Moreover, in test [1], the ED50 is 0.76 mg/kg. In test [2], testing at 1 µM gave an inhibition of 100%. The molecule also showed an inhibition at 0.3 µM at human EP4 receptor of 98%.
Take `O=C(O)c1ccc(C2(Nc3nccc4c3N(Cc3ccc(F)c(F)c3)CCO4)CC2)cc1` [Example B4, 4-[1-[[4-[(3,4-Difluorophenyl)methyl]-2,3-dihydropyrido[4,3-b][1,4]oxazin-5-yl]amino]cyclopropyl]benzoic acid]: the “% reduction in arthritis score” value in test [1] (0.1 mg/kg BID) came to 3%; in test [1] (0.3 mg/kg BID), 4%; in test [1] (1 mg/kg BID) it was 27%; in test [1] (3 mg/kg BID), 39%; in test [1] (10 mg/kg BID), 51%; in test [1] (30 mg/kg BID), 55%. Besides, the ED50 in test [1] was 8.8 mg/kg. The same molecule registered an inhibition at 1 µM in test [2] of 97%. This molecule also registered an inhibition at 0.3 µM on human EP4 receptor of 83%.
In turn, `C[C@H](Nc1nccc2c1N(Cc1ccc(C(F)(F)F)cc1)CCO2)c1ccc(C#N)cc1` [Example E1, 4-[(1S)-1-[[4-[[4-(Trifluoromethyl)phenyl]methyl]-2,3-dihydropyrido[4,3-b][1,4]oxazin-5-yl]amino]ethyl]benzonitrile] came in with an inhibition at 1 µM in test [2] of 91%. The inhibition at 0.3 µM on human EP4 receptor stood at 92%.
For `C[C@H](Nc1nccc2c1N(Cc1ccc(C(F)(F)F)cc1)CCO2)c1ccc(-c2nnn[nH]2)cc1` [Example F1, N-[(1S)-1-[4-(1H-Tetrazol-5-yl)phenyl]ethyl]-4-[[4-(trifluoromethyl)phenyl]methyl]-2,3-dihydropyrido[4,3-b][1,4]oxazin-5-amine], the inhibition at 1 µM in test [2] came to 90%. Besides, at 0.3 µM the inhibition on human EP4 receptor was 100%.
The matching figures for `C[C@H](Nc1ncc(Cl)c2c1N(Cc1ccc(C(F)(F)F)cc1)CCO2)c1ccc(C(=O)O)cc1` [Example G1, 4-[(1S)-1-[[8-Chloro-4-[[4-(trifluoromethyl)phenyl]methyl]-2,3-dihydropyrido[4,3-b][1,4]oxazin-5-yl]amino]ethyl]benzoic acid]: 92% and 100%.
